In PubChem BioAssay AID2060894 (Molecular Pharmacology Branch, DTP, NCI, 2025):
Each block holds one compound with its values, some of them ahead of it.

System: K12877-001-R-J1-PDC complex spheroid viability
Assay: Anticancer human tumor K12877-001-R-J1-PDC patient-derived lung adenocarcinoma cell line growth inhibition [RAS]
Details: for IC50: curve of first compound; for viability, T/C: stronger effect = lower value
Description: RAS pathway inhibitors in Combinations in Complex Spheroids
A high-throughput screen of multi-cell type tumor spheroids was designed to identify active combinations of RAS pathway inhibitors and targeted small molecules. Complex spheroids include a stromal component modeled by human endothelial cells (HUVEC) and fibroblasts modeled by human mesenchymal stem cells (MSCs). The concentration ranges selected for each drug and investigational agent were based upon clinically achievable concentrations if the clinical Cmax of the agent was known.
Compounds. The drugs and investigational agents: abemaciclib (NSC768073), cobimetinib (NSC768068), divarasib (GDC6063, NSC841802), docetaxel (NSC628503), GDC-1971 (RLY-1971, NSC841576), gemcitabine (NSC613327), inavolisib (NSC800729), ipatasertib (NSC767898), KB-0742 (NSC834161), MRTX-1133 (NSC836407), osimertinib (NSC779217), RMC-4630 (NSC839698), RMC-6236 (NSC851965), RMC-6291 (NSC852671), Ro-3306 (NSC812927), sapanisertib (NSC764658), SN-38 (NSC673596), staurosporine (NSC755774), SY5609 (NSC837396), and tovorafenib (DAY101, NSC766906), were obtained from the National Cancer Institute (NCI) Developmental Therapeutics Program Chemical Repository. The FDA-approved anticancer drug set is available from the NCI Developmental Therapeutics Program. […] The stock solutions were prepared in dimethyl sulfoxide (DMSO, Sigma-Aldrich, St. Louis, MO, cat. D2650) at 800-fold the tested concentration and stored at -70 degrees C prior to their use. All drugs and investigational agents were tested over a range starting from a high concentration at or near the clinical Cmax and decreasing in half-log increments. If the clinical Cmax for an agent had not been determined, the highest concentration tested was 10 microM.
Cell Culture. All cells were maintained in an incubator at 37 degrees C and 5% CO2 with 95% humidity. The PDC lines were cultured according to standard operating procedures established by the NCI PDMR. All PDCs were thawed and cultured in Matrigel-coated flasks prepared with a working solution of 1X Ham's F-12 nutrient mix, without supplementation (Invitrogen, Waltham, MA, cat. 11765054), 100 U/mL penicillin-streptomycin (Invitrogen, cat. 15140122), and 2.5% Matrigel (Corning Inc., Corning, NY, cat. 354248) for the first three passages. The 362531-283-R-J2-PDC and 782815-120-R-J1-PDC lines were cultured in 6C/Colon 1B media, which includes advanced DMEM/F-12 (Thermo Fisher Scientific, cat. 12634028), 10 mM HEPES (Thermo Fisher Scientific, cat. 15630080), 1X GlutaMAX supplement (Thermo Fisher Scientific, cat. 35050061), 0.1 mg/mL primocin (InvivoGen, San Diego, CA, cat. ant-pm-2), 10% defined fetal bovine serum, heat inactivated (HyClone Laboratories Inc., Logan, UT, cat. SH30070.03HI), 50% L-WRN conditioned media (ATCC, cat. CRL-3276), 1.25 mM N-Acetyl-L-cysteine (Sigma-Aldrich, cat. A9165), 10 mM nicotinamide (Sigma-Aldrich, cat. N0636), 1X B-27 supplement (Thermo Fisher Scientific, cat. 17504044), 1X N-2 supplement (Thermo Fisher Scientific, cat. 17502048), 50 ng/mL human EGF (Thermo Fisher Scientific, cat. PHG0311), and 10 microM Y-27632 dihydrochloride (Tocris Bioscience, cat. 1254). The K12877-001-R-J1-PDC line was cultured in 6I media, which includes all 6C/Colon 1B media plus 10 ng/mL human FGF-10 (PeproTech, cat. 100-26), 1 ng/mL human FGF-2 (PeproTech, cat. 100-18B), 1 µM prostaglandin E2 (Tocris Bioscience, cat. 2296), […] hydrocortisone (Sigma-Aldrich, cat. H4001), and […] bovine insulin (Sigma-Aldrich, cat. I6634). The K86415-001-R-J1-PDC line was cultured in 6D media, which includes all 6C/Colon 1B media components minus the L-WRN conditioned media. The 485176-168-R4-J1-PDC was cultured in PANC media, which includes all 6C/Colon 1B media plus 100 ng/mL human FGF-10 (PeproTech, cat. 100-26), 500 nM SB-431542 (Selleckchem, cat. S1067), and 10 nM gastrin (Tocris Bioscience, cat. 3006). […]

[1] = second compound 0.0316 µM, first compound 0.0316 µM
[2] = second compound 0.0316 µM, first compound 0.1 µM
[3] = second compound 0.0316 µM, first compound 0.316 µM
[4] = second compound 0.0316 µM, first compound 1 µM
[5] = second compound 0.0316 µM, first compound 3.16 µM
[6] = second compound 0.0316 µM, first compound 10 µM
[7] = second compound 0.1 µM, first compound 0.0316 µM
[8] = second compound 0.1 µM, first compound 0.1 µM
[9] = second compound 0.1 µM, first compound 0.316 µM
[10] = second compound 0.1 µM, first compound 1 µM
[11] = second compound 0.1 µM, first compound 3.16 µM
[12] = second compound 0.1 µM, first compound 10 µM
[13] = second compound 0.316 µM, first compound 0.0316 µM
[14] = second compound 0.316 µM, first compound 0.1 µM
[15] = second compound 0.316 µM, first compound 0.316 µM
[16] = second compound 0.316 µM, first compound 1 µM
[17] = second compound 0.316 µM, first compound 3.16 µM
[18] = second compound 0.316 µM, first compound 10 µM
[19] = second compound 1 µM, first compound 0.0316 µM
[20] = second compound 1 µM, first compound 0.1 µM
[21] = second compound 1 µM, first compound 0.316 µM
[22] = second compound 1 µM, first compound 1 µM
[23] = second compound 1 µM, first compound 3.16 µM
[24] = second compound 1 µM, first compound 10 µM
[25] = second compound 3.16 µM, first compound 0.0316 µM
[26] = second compound 3.16 µM, first compound 0.1 µM
[27] = second compound 3.16 µM, first compound 0.316 µM
[28] = second compound 3.16 µM, first compound 1 µM
[29] = second compound 3.16 µM, first compound 3.16 µM
[30] = second compound 3.16 µM, first compound 10 µM
[31] = second compound 10 µM, first compound 0.0316 µM
[32] = second compound 10 µM, first compound 0.1 µM
[33] = second compound 10 µM, first compound 0.316 µM
[34] = second compound 10 µM, first compound 1 µM
[35] = second compound 10 µM, first compound 3.16 µM
[36] = second compound 10 µM, first compound 10 µM
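Also: spheroids exposed to agents for one week before readout.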

IC50 (second compound 0.0316 µM): 3310 nM | IC50 (second compound 0.1 µM): 3060 nM | IC50 (second compound 0.316 µM): 3920 nM | IC50 (second compound 1 µM): 3970 nM | IC50 (second compound 3.16 µM): 4160 nM | IC50 (second compound 10 µM): 3480 nM
SMILES: CC1(O)CCCC1n1c(=O)c(C(F)F)cc2cnc(NC3CCN(S(C)(=O)=O)CC3)nc21 (stereo unspecified) + C#Cc1c(F)ccc2cc(O)cc(-c3ncc4c(N5CC6CCC(C5)N6)nc(OCC56CCCN5CC(F)C6)nc4c3F)c12
viability, T/C [1]: 98.5% | viability, T/C [2]: 115% | viability, T/C [3]: 77.2% | viability, T/C [4]: 72.1% | viability, T/C [5]: 60.9% | viability, T/C [6]: 3.3% | viability, T/C [7]: 112% | viability, T/C [8]: 115% | viability, T/C [9]: 87.7% | viability, T/C [10]: 66% | viability, T/C [11]: 62.7% | viability, T/C [12]: 3.47% | viability, T/C [13]: 119% | viability, T/C [14]: 104% | viability, T/C [15]: 85.3% | viability, T/C [16]: 81.1% | viability, T/C [17]: 72.3% | viability, T/C [18]: 3.03% | viability, T/C [19]: 106% | viability, T/C [20]: 106% | viability, T/C [21]: 84.7% | viability, T/C [22]: 83% | viability, T/C [23]: 67.2% | viability, T/C [24]: 3.27% | viability, T/C [25]: 120% | viability, T/C [26]: 93.1% | viability, T/C [27]: 93.3% | viability, T/C [28]: 80% | viability, T/C [29]: 74.1% | viability, T/C [30]: 3.16% | viability, T/C [31]: 92% | viability, T/C [32]: 87% | viability, T/C [33]: 71.6% | viability, T/C [34]: 76.9% | viability, T/C [35]: 56.3% | viability, T/C [36]: 2.77%

IC50 (second compound 0.0316 µM): 1540 nM | IC50 (second compound 0.1 µM): 1690 nM | IC50 (second compound 0.316 µM): 1620 nM | IC50 (second compound 1 µM): 1810 nM | IC50 (second compound 3.16 µM): 1580 nM | IC50 (second compound 10 µM): 1450 nM
SMILES: CCC(CC)c1cc(NC2CCC(N)C2)n2nccc2n1 (stereo unspecified) + C#Cc1c(F)ccc2cc(O)cc(-c3ncc4c(N5CC6CCC(C5)N6)nc(OCC56CCCN5CC(F)C6)nc4c3F)c12
viability, T/C [1]: 89.6% | viability, T/C [2]: 99.2% | viability, T/C [3]: 91.7% | viability, T/C [4]: 78.1% | viability, T/C [5]: 2.8% | viability, T/C [6]: 1.63% | viability, T/C [7]: 107% | viability, T/C [8]: 92.8% | viability, T/C [9]: 103% | viability, T/C [10]: 89.6% | viability, T/C [11]: 2.62% | viability, T/C [12]: 1.37% | viability, T/C [13]: 114% | viability, T/C [14]: 111% | viability, T/C [15]: 93.4% | viability, T/C [16]: 83.6% | viability, T/C [17]: 3.3% | viability, T/C [18]: 1.42% | viability, T/C [19]: 102% | viability, T/C [20]: 88.8% | viability, T/C [21]: 105% | viability, T/C [22]: 102% | viability, T/C [23]: 2.94% | viability, T/C [24]: 1.04% | viability, T/C [25]: 109% | viability, T/C [26]: 105% | viability, T/C [27]: 103% | viability, T/C [28]: 81.1% | viability, T/C [29]: 2.74% | viability, T/C [30]: 1.05% | viability, T/C [31]: 102% | viability, T/C [32]: 86.2% | viability, T/C [33]: 93.3% | viability, T/C [34]: 72.4% | viability, T/C [35]: 2.41% | viability, T/C [36]: 1.21%

IC50 (second compound 0.0316 µM): > 1000 nM | IC50 (second compound 0.1 µM): > 1000 nM | IC50 (second compound 0.316 µM): > 1000 nM | IC50 (second compound 1 µM): > 1000 nM | IC50 (second compound 3.16 µM): > 1000 nM | IC50 (second compound 10 µM): > 1000 nM
SMILES: CCN1CCN(Cc2ccc(Nc3ncc(F)c(-c4cc(F)c5nc(C)n(C(C)C)c5c4)n3)nc2)CC1 + C#Cc1c(F)ccc2cc(O)cc(-c3ncc4c(N5CC6CCC(C5)N6)nc(OCC56CCCN5CC(F)C6)nc4c3F)c12
viability, T/C (second compound 0.0316 µM, first compound 0.00316 µM): 106% | viability, T/C (second compound 0.0316 µM, first compound 0.01 µM): 101% | viability, T/C [1]: 106% | viability, T/C [2]: 85.6% | viability, T/C [3]: 118% | viability, T/C [4]: 97.2% | viability, T/C (second compound 0.1 µM, first compound 0.00316 µM): 97.9% | viability, T/C (second compound 0.1 µM, first compound 0.01 µM): 102% | viability, T/C [7]: 113% | viability, T/C [8]: 97.8% | viability, T/C [9]: 118% | viability, T/C [10]: 88.4% | viability, T/C (second compound 0.316 µM, first compound 0.00316 µM): 115% | viability, T/C (second compound 0.316 µM, first compound 0.01 µM): 107% | viability, T/C [13]: 98.6% | viability, T/C [14]: 99.2% | viability, T/C [15]: 109% | viability, T/C [16]: 108% | viability, T/C (second compound 1 µM, first compound 0.00316 µM): 109% | viability, T/C (second compound 1 µM, first compound 0.01 µM): 113% | viability, T/C [19]: 96.7% | viability, T/C [20]: 104% | viability, T/C [21]: 108% | viability, T/C [22]: 82.2% | viability, T/C (second compound 3.16 µM, first compound 0.00316 µM): 108% | viability, T/C (second compound 3.16 µM, first compound 0.01 µM): 105% | viability, T/C [25]: 97% | viability, T/C [26]: 94.1% | viability, T/C [27]: 76.1% | viability, T/C [28]: 83.9% | viability, T/C (second compound 10 µM, first compound 0.00316 µM): 105% | viability, T/C (second compound 10 µM, first compound 0.01 µM): 84.8% | viability, T/C [31]: 90.4% | viability, T/C [32]: 92.3% | viability, T/C [33]: 87.2% | viability, T/C [34]: 56.7%
